Measured values published in patent publication US11590116B2 (THERAVANCE BIOPHARMA R&D IP, LLC, priority 2019, dated 2023).

What was measured:
[1] = target: T1, recombinant human ALK5 (TGF-βR1) protein (Homo sapiens, UniProt P36897); assay: Biochemical ALK5 (TGF-βR1) assay to measure pKi (LANCE Ultra ULight kinase assay); details: apparent pKi from pIC50 by Cheng-Prusoff, read-out: ALK5 pKi (converted)
T1 construct: purchased Life Technologies PR9075A
T1 sequence (P36897 34-503): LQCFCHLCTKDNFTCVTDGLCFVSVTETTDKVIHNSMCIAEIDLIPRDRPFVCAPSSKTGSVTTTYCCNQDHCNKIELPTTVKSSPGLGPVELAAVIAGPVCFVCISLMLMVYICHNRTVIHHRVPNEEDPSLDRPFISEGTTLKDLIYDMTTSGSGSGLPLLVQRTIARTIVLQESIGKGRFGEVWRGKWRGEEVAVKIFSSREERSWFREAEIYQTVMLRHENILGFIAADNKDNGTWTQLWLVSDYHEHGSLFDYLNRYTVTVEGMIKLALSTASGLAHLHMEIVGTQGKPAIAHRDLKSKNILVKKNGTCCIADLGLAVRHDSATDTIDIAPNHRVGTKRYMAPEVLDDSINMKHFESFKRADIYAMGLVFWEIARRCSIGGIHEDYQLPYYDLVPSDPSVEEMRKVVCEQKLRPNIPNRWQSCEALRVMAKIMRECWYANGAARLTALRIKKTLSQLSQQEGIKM
Procedure, shortened: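 Compounds (10 μM to 25 pM) preincubated 60 minutes at room temperature with enzyme, then reaction run 60 minutes at 37° C with ATP added as 125 μM (5× final). Stopped with EDTA plus Eu-anti-phospho-Topoisomerase 2-alpha (Thr1342) antibody, TR-FRET read at 665 nm; pIC50 converted to pKi via Cheng-Prusoff.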

[2] = test system: TGF-β-stimulated SMAD3 phosphorylation in BEAS-2B cells; assay: Cellular ALK5 potency assay, inhibition of TGF-β stimulated pSMAD3 formation in BEAS-2B cells; assay type: cell-based; details: Homo sapiens; inhibition of TGF-β stimulated pSMAD3 formation, BEAS-2B cells; read-out: BEAS2B pIC50 (converted)
Procedure, shortened: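 BEAS-2B human lung epithelial cells pre-treated 1 h at 37° C with compound in HBSS/25 mM HEPES/1% BSA, then stimulated 30 min with 10 ng/mL TGF-β (final). Lysates assayed for pSMAD3 by AlphaLISA; pIC50 from dose-dependent change versus stimulated untreated cells.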

In the case of `COc1cnc2ccc(-c3c[nH]nc3-c3cccc(C)n3)nc2c1` [Compound 321, 7-methoxy-2-[3-(6-methyl-2-pyridyl)-1H-pyrazol-4-yl]-1,5-naphthyridine], the Ki [1] is reported as under 0.0316 nM and the IC50 [2] is reported as under 20 nM.

In the case of `Cc1cccc(-c2[nH]cnc2-c2ccc3ncc(-c4ccnc(C(=O)OC5CNC5)c4)cc3c2)n1` [Compound 1133, azetidin-3-yl 4-[6-[5-(6-methyl-2-pyridyl)-1H-imidazol-4-yl]-3-quinolyl]pyridine-2-carboxylate], the Ki [1] is reported as 0.0398 to 0.316 nM and the IC50 [2] is reported as 200 to 1260 nM.

For `Cc1cccc(-c2[nH]cnc2-c2ccc3ncc(-c4ncc(C(=O)OC5CNC5)s4)cc3c2)n1` [Compound 1018, azetidin-3-yl 2-(6-(5-(6-methylpyridin-2-yl)-1H-imidazol-4-yl)quinolin-3-yl)thiazole-5-carboxylate], the Ki [1] was 0.0398 to 0.316 nM and the IC50 [2] was 25.1 to 158 nM.

With `CNCCn1cc(-c2cnc3ccc(-c4c(-c5cccc(C)n5)nn5c4CNCC5)cc3c2)cn1` [Compound 327, N-methyl-2-[4-[6-[2-(6-methyl-2-pyridyl)-4,5,6,7-tetrahydropyrazolo[1,5-a]pyrazin-3-yl]-3-quinolyl]pyrazol-1-yl]ethanamine] the Ki [1] was 0.0398 to 0.316 nM and the IC50 [2] was 200 to 1260 nM.

In the case of `CCc1cccc(-c2n[nH]cc2-c2ccc3ncc(-c4ccn(CCNC)n4)cc3n2)n1` [Compound 92, 2-(3-(6-(3-(6-ethylpyridin-2-yl)-1H-pyrazol-4-yl)-1,5-naphthyridin-3-yl)-1H-pyrazol-1-yl)-N-methylethan-1-amine], the Ki [1] is reported as 0.0398 to 0.316 nM and the IC50 [2] is reported as 25.1 to 158 nM.

In the case of `Cc1cccc(-c2n[nH]cc2-c2ccc3ncc(NCC4CCCNC4)cc3n2)n1` (centres unmarked) [Compound 199, 6-[3-(6-methyl-2-pyridyl)-1H-pyrazol-4-yl]-N-(3-piperidylmethyl)-1,5-naphthyridin-3-amine], the Ki [1] is reported as 0.0398 to 0.316 nM and the IC50 [2] is reported as 200 to 1260 nM.

`Cc1cccc(-c2n[nH]cc2-c2ccc3nccc(CN(C)CCCN4CCOCC4)c3n2)n1` [Compound 853, N-methyl-N-[[6-[3-(6-methyl-2-pyridyl)-1H-pyrazol-4-yl]-1,5-naphthyridin-4-yl]methyl]-3-morpholino-propan-1-amine] gave a Ki [1] of 0.0398 to 0.316 nM and an IC50 [2] of 25.1 to 158 nM.

`Cc1cccc(-c2nc3ccccn3c2-c2ccc3ncc(NCCN4CCN(C(C)C)CC4)cc3n2)n1` [Compound 120, N-(2-(4-isopropylpiperazin-1-yl)ethyl)-6-(2-(6-methylpyridin-2-yl)imidazo[1,2-a]pyridin-3-yl)-1,5-naphthyridin-3-amine] showed a Ki [1] of 0.0398 to 0.316 nM and an IC50 [2] of 25.1 to 158 nM.

`Cc1cccc(-c2[nH]cnc2-c2ccc3ncc(C4=CCCNC4)cc3c2)n1` [Compound 259, 6-[5-(6-methyl-2-pyridyl)-1H-imidazol-4-yl]-3-(1,2,3,6-tetrahydropyridin-5-yl)quinoline] was tested, and the Ki [1] was 0.0398 to 0.316 nM and the IC50 [2] was under 20 nM.

`Cc1cccc(-c2[nH]cnc2-c2ccc3ncc(-c4ccc(C(=O)OC5CNC5)s4)cc3c2)n1` [Compound 1006, azetidin-3-yl 5-(6-(5-(6-methylpyridin-2-yl)-1H-imidazol-4-yl)quinolin-3-yl)thiophene-2-carboxylate] was tested, and the Ki [1] was 0.0398 to 0.316 nM and the IC50 [2] was 25.1 to 158 nM.

`CNCCn1cc(-c2cnc3ccc(-c4c(-c5cccc(C)n5)nnn4C)cc3c2)cn1` [Compound 628, N-methyl-2-(4-(6-(1-methyl-4-(6-methylpyridin-2-yl)-1H-1,2,3-triazol-5-yl)quinolin-3-yl)-1H-pyrazol-1-yl)ethan-1-amine] showed a Ki [1] of under 0.0316 nM and an IC50 [2] of 25.1 to 158 nM.

`Cc1cccc(-c2[nH]cnc2-c2ccc3ncc(-c4nc(C(=O)OCCN5C[C@@H](C)N[C@@H](C)C5)cs4)cc3c2)n1` [Compound 1226, 2-[(3R,5S)-3,5-dimethylpiperazin-1-yl]ethyl 2-[6-[5-(6-methyl-2-pyridyl)-1H-imidazol-4-yl]-3-quinolyl]thiazole-4-carboxylate] was tested, and the Ki [1] was 0.0398 to 0.316 nM and the IC50 [2] was 25.1 to 158 nM.

For `Cc1cccc(-c2[nH]cnc2-c2ccc3nccc(C(=O)OCCN4CCNCC4)c3c2)n1` [Compound 1121, 2-piperazin-1-ylethyl 6-[5-(6-methyl-2-pyridyl)-1H-imidazol-4-yl]quinoline-4-carboxylate], the Ki [1] was 0.398 to 3.16 nM and the IC50 [2] was 200 to 1260 nM.

`Cc1nc(-c2n[nH]cc2-c2ccc3ncc(-c4cnc5n4CCCN5)cc3n2)ccc1F` [Compound 123, 2-[3-(5-fluoro-6-methyl-2-pyridyl)-1H-pyrazol-4-yl]-7-(5,6,7,8-tetrahydroimidazo[1,2-a]pyrimidin-3-yl)-1,5-naphthyridine] gave a Ki [1] of 0.0398 to 0.316 nM and an IC50 [2] of 25.1 to 158 nM.

Compound `Cc1cccc(-c2n[nH]cc2-c2ccc3ncc(N4CCOCC4)cc3n2)n1` [Compound 78, 4-[6-[3-(6-methyl-2-pyridyl)-1H-pyrazol-4-yl]-1,5-naphthyridin-3-yl]morpholine] has a Ki [1] of under 0.0316 nM and an IC50 [2] of under 20 nM.

Compound `Cc1cccc(-c2[nH]cnc2-c2ccc3ncc(N4CC[C@H](N)C4)cc3c2)n1` [Compound 208, (3S)-1-[6-[5-(6-methyl-2-pyridyl)-1H-imidazol-4-yl]-3-quinolyl]pyrrolidin-3-amine] has a Ki [1] of 0.0398 to 0.316 nM and an IC50 [2] of under 20 nM.

`Cc1cccc(-c2n[nH]cc2-c2ccc3nccc(CN4CCN(CC(=O)O)CC4)c3n2)n1` [Compound 822, 2-[4-[[6-[3-(6-methyl-2-pyridyl)-1H-pyrazol-4-yl]-1,5-naphthyridin-4-yl]methyl]piperazin-1-yl]acetic acid] was tested, and the Ki [1] was 0.398 to 3.16 nM and the IC50 [2] was 25.1 to 158 nM.

For `Cc1cccc(-c2n[nH]cc2-c2ccc3nccc(CNCCCN4CCOCC4)c3n2)n1` [Compound 815, N-[[6-[3-(6-methyl-2-pyridyl)-1H-pyrazol-4-yl]-1,5-naphthyridin-4-yl]methyl]-3-morpholino-propan-1-amine], the Ki [1] was 0.0398 to 0.316 nM and the IC50 [2] was 25.1 to 158 nM.

Work on `Cc1cccc(-c2[nH]cnc2-c2ccc3ncc(-c4cccc(C(=O)O[C@@H]5CCN(C)C5)c4)cc3c2)n1` [Compound 608, [(3R)-1-methylpyrrolidin-3-yl] 3-[6-[5-(6-methyl-2-pyridyl)-1H-imidazol-4-yl]-3-quinolyl]benzoate] yielded a Ki [1] of 0.0398 to 0.316 nM and an IC50 [2] of 25.1 to 158 nM.

For `Cc1cccc(-c2n[nH]cc2-c2ccc3ncc(-c4ccc(C5CCCN(C)C5)cc4)cc3n2)n1` (centres unmarked) [Compound 552, 7-[4-(1-methyl-3-piperidyl)phenyl]-2-[3-(6-methyl-2-pyridyl)-1H-pyrazol-4-yl]-1,5-naphthyridine], the Ki [1] was under 0.0316 nM and the IC50 [2] was 200 to 1260 nM.

Compound `Cc1cccc(-c2n[nH]cc2-c2ccc3ncc(N4CCC[C@H]4CO)cc3n2)n1` [Compound 52, [(2S)-1-[6-[3-(6-methyl-2-pyridyl)-1H-pyrazol-4-yl]-1,5-naphthyridin-3-yl]pyrrolidin-2-yl]methanol] has a Ki [1] of 0.0398 to 0.316 nM and an IC50 [2] of 25.1 to 158 nM.

With `Cc1cccc(-c2[nH]cnc2-c2ccc3ncc(-c4cc(C(=O)O)ccn4)cc3c2)n1` [Compound 1137, 2-[6-[5-(6-methyl-2-pyridyl)-1H-imidazol-4-yl]-3-quinolyl]pyridine-4-carboxylic acid] the Ki [1] was 0.0398 to 0.316 nM and the IC50 [2] was 1580 to 10000 nM.

Compound `Cc1cccc(-c2[nH]cnc2-c2ccc3ncc(NCCN4CCC(C(=O)O)CC4)cc3c2)n1` [Compound 670, 1-[2-[[6-[5-(6-methyl-2-pyridyl)-1H-imidazol-4-yl]-3-quinolyl]amino]ethyl]piperidine-4-carboxylic acid] has a Ki [1] of 0.0398 to 0.316 nM and an IC50 [2] of 200 to 1260 nM.

For `Cc1cccc(-c2[nH]cnc2-c2ccc3ncc(C4=CCC(NCc5ccccc5)CC4)cc3n2)n1` (centres unmarked) [Compound 228, N-benzyl-4-[6-[5-(6-methyl-2-pyridyl)-1H-imidazol-4-yl]-1,5-naphthyridin-3-yl]cyclohex-3-en-1-amine], the Ki [1] was 0.0398 to 0.316 nM and the IC50 [2] was 200 to 1260 nM.

In the case of `Cc1cccc(-c2n[nH]cc2-c2ccc3nccc(NC(=O)CCCN4CCOCC4)c3n2)n1` [Compound 842, N-[6-[3-(6-methyl-2-pyridyl)-1H-pyrazol-4-yl]-1,5-naphthyridin-4-yl]-4-morpholino-butanamide], the Ki [1] is reported as 0.398 to 3.16 nM and the IC50 [2] is reported as 25.1 to 158 nM.

With `CNCCn1ccc(-c2cnc3ccc(-c4c[nH]nc4-c4cccc(C)n4)nc3c2)n1` [Compound 229, N-methyl-2-[3-[6-[3-(6-methyl-2-pyridyl)-1H-pyrazol-4-yl]-1,5-naphthyridin-3-yl]pyrazol-1-yl]ethanamine] the Ki [1] was under 0.0316 nM and the IC50 [2] was 25.1 to 158 nM.

`Cc1cccc(-c2[nH]cnc2-c2ccc3ncc(-c4ccc(C(=O)OCCN5CCC[C@@H](N)C5)cn4)cc3c2)n1` [Compound 1174, 2-[(3R)-3-amino-1-piperidyl]ethyl 6-[6-[5-(6-methyl-2-pyridyl)-1H-imidazol-4-yl]-3-quinolyl]pyridine-3-carboxylate] gave a Ki [1] of 0.0398 to 0.316 nM and an IC50 [2] of 25.1 to 158 nM.

`Cc1cccc(-c2[nH]cnc2-c2ccc3ncc(-c4ccc(C(=O)OC5CNC5)nc4)cc3c2)n1` [Compound 616, azetidin-3-yl 5-[6-[5-(6-methyl-2-pyridyl)-1H-imidazol-4-yl]-3-quinolyl]pyridine-2-carboxylate] showed a Ki [1] of 0.0398 to 0.316 nM and an IC50 [2] of 25.1 to 158 nM.
